Laboratory results taken from US8124610B2, “Sodium channel inhibitors” (Icagen Inc., priority 2007, dated 2012).
Read-outs that look alike come from different tables or passages of the source.

Legend:
[1] = biological target: T1, hSCN3A (Homo sapiens, UniProt Q9NY46); assay: Whole-cell patch-clamp electrophysiology (conventional or PatchXpress), HEK cells expressing hSCN3A, estimated IC-50; format: cell-based; conditions: read-out: SCN3A EIC-50
T1 construct: expressed in transfected cells
Description: Human Embryonic Kidney (HEK) cells were transfected with hSCN3A or hSCN9A constructs using lipofectamine reagent (Invitrogen), using standard techniques. Cells stably expressing the hSCN3A or hSCN9A constructs were identified by their resistance to G-418 (400 μg/ml). Clones were screened for expression using the whole-cell voltage-clamp technique. HEK cells stably transfected with hSCN3A or hSCN9A were maintained in DMEM medium supplemented with 10% heat-inactivated fetal bovine serum and 400 μg/ml G418 sulfate in an incubator at 37° C. with a humidified atmosphere of 10% CO2. For HTS, cells were harvested from flasks by trypsinization and replated in an appropriate multi-well plate (typically 96 or 384 wells/plate) such that confluence would be achieved within 24 hours of plating. For electrophysiological studies, cells were removed from the culture flask by brief trypsinization and replated at low density onto glass cover slips. Cells were typically used for electrophysiological experiments within 24 to 72 h after plating. Cover slips containing HEK cells expressing hSCN3A or hSCN9A were placed in a bath on the stage of an inverted microscope and perfused (approximately 1 ml/min) with extracellular solution of the following composition: 138 mM NaCl, 2 mM CaCl2, 5.4 mM KCl, 1 mM MgCl2, 10 mM glucose, and 10 mM HEPES, pH 7.4, with NaOH. […] All recordings were made at room temperature (22-24° C.) using AXOPATCH 200B amplifiers and PCLAMP software (Axon Instruments, Burlingame, Calif.) or PatchXpress 7000 hardware and associated software (Axon Instruments, Burlingame, Calif.). hSCN3A or hSCN9A currents in HEK cells were measured using the whole-cell configuration of the patch-clamp technique (Hamill et al., 1981). […] As a result, voltage errors were negligible and no correction was applied. Current records were acquired at 20 to 50 KHz and filtered at 5 to 10 KHz. HEK cells stably transfected with hSCN3A or hSCN9A were viewed under Hoffman contrast optics and placed in front of an array of flow pipes emitting either control or compound-containing extracellular solutions. All compounds were dissolved in dimethyl sulfoxide to make 10 mM stock solutions, which were then diluted into extracellular solution to attain the final concentrations desired. […] The voltage-dependence of inactivation was determined by applying a series of depolarizing prepulses (8 sec long in 10 mV increments) from a negative holding potential. The voltage was then immediately stepped to 0 mV to assess the magnitude of the sodium current. Currents elicited at 0 mV were plotted as a function of prepulse potential to allow estimation of the voltage midpoint of inactivation (V1/2). Cells were then voltage clamped at the empirically determined V1/2. Compounds were tested for their ability to inhibit hSCN3A or hSCN9A sodium channels by activating the channel with a 20 msec voltage step to 0 mV following an 8 second conditioning prepulse to the empirically determined V1-2 (Table B). Compound effect (% inhibition) was determined by difference in current amplitude before and after application of test compounds. […] In some cases electrophysiological assays were conducted with PatchXpress 7000 hardware and associated software (Molecular Devices Corp) (Table B). All assay buffers and solutions were identical to those used in conventional whole-cell voltage clamp experiments described above. hSCN3A or hSCN9A containing cells were grown as above to 50%-80% confluency and harvested by trypsinization. Trypsinized cells were washed and resuspended in extracellular buffer at a concentration of 1×10^6 cells/ml. The onboard liquid handling facility of the PatchXpress was used for dispensing cells and application of test compounds. Determination of the voltage midpoint of inactivation was as described for conventional whole-cell recordings. Cells were then voltage-clamped to the empirically determined V1/2 and current was activated by a 20 msec voltage step to 0 mV.

[2] = biological target: T2, hSCN9A (Homo sapiens, UniProt Q15858); assay: Whole-cell patch-clamp electrophysiology (conventional or PatchXpress), HEK cells expressing hSCN9A, estimated IC-50; format: cell-based; conditions: read-out: SCN9A EIC-50
T2 construct: expressed in transfected cells
T2 sequence (Q15858 whole entry): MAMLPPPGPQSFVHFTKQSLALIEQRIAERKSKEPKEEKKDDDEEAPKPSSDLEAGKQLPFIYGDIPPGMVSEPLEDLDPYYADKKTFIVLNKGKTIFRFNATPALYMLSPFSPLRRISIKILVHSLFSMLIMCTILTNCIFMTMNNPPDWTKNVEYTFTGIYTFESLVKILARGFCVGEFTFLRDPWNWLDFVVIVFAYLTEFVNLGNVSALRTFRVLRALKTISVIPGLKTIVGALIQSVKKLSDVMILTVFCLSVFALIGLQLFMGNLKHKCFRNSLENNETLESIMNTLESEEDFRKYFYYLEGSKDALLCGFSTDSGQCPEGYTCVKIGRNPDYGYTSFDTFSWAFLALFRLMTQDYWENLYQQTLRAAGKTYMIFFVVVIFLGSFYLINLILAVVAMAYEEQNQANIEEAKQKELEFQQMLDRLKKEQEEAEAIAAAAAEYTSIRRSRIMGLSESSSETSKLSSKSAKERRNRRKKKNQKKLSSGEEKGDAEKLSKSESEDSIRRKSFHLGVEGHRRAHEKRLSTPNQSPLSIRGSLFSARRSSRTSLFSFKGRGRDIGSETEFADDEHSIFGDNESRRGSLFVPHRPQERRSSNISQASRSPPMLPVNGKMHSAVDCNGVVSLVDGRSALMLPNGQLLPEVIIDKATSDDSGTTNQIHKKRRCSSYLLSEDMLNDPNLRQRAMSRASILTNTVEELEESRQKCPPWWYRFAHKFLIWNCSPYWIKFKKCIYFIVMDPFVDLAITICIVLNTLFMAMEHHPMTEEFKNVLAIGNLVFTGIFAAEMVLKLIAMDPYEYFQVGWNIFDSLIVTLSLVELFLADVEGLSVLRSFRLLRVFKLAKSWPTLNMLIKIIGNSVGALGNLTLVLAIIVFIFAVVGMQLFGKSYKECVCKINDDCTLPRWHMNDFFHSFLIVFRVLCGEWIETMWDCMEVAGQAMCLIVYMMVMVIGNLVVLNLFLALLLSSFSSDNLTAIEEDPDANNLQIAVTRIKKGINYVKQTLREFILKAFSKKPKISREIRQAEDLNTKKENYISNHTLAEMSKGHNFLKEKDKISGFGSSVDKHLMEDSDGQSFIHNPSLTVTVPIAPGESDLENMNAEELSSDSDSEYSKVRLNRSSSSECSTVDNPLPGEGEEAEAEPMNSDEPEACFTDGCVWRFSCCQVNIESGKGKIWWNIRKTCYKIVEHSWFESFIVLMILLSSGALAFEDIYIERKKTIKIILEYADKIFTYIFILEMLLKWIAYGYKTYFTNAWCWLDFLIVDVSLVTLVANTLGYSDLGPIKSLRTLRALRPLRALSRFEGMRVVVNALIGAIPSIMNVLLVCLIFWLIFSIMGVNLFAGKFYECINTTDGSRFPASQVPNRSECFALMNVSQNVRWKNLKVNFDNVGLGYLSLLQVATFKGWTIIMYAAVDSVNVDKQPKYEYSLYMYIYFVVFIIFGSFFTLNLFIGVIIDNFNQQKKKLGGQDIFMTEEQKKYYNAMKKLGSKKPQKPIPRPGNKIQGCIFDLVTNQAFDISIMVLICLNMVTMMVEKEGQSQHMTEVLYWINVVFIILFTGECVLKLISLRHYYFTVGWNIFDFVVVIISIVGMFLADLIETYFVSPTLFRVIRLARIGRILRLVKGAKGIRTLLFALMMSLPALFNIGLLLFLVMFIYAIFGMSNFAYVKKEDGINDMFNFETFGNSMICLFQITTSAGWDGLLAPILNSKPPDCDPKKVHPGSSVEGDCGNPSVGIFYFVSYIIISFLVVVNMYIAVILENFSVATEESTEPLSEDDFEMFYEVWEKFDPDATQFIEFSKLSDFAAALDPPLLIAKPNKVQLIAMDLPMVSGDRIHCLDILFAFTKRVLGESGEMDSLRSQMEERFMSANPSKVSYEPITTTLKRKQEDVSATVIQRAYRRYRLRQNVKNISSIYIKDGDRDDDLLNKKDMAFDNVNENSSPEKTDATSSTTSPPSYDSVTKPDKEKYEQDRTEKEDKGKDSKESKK
Outline: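 Current through each channel was evoked by a 20 ms step to 0 mV following an 8 s conditioning prepulse at the cell's own half-inactivation voltage. Recordings used HEK lines stably expressing the channel, conventional or PatchXpress patch clamp, room temperature, pH 7.4 bath; inhibition taken as pre/post-compound amplitude change.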

[3] = estimated IC-50, HEK cells expressing hSCN3A, class symbols or bounds
[4] = estimated IC-50, HEK cells expressing hSCN9A, class symbols or bounds
[5] = Table V, estimated IC-50 from single point electrophysiology, cells clamped at V1/2

T1 sequence (Q9NY46 whole entry): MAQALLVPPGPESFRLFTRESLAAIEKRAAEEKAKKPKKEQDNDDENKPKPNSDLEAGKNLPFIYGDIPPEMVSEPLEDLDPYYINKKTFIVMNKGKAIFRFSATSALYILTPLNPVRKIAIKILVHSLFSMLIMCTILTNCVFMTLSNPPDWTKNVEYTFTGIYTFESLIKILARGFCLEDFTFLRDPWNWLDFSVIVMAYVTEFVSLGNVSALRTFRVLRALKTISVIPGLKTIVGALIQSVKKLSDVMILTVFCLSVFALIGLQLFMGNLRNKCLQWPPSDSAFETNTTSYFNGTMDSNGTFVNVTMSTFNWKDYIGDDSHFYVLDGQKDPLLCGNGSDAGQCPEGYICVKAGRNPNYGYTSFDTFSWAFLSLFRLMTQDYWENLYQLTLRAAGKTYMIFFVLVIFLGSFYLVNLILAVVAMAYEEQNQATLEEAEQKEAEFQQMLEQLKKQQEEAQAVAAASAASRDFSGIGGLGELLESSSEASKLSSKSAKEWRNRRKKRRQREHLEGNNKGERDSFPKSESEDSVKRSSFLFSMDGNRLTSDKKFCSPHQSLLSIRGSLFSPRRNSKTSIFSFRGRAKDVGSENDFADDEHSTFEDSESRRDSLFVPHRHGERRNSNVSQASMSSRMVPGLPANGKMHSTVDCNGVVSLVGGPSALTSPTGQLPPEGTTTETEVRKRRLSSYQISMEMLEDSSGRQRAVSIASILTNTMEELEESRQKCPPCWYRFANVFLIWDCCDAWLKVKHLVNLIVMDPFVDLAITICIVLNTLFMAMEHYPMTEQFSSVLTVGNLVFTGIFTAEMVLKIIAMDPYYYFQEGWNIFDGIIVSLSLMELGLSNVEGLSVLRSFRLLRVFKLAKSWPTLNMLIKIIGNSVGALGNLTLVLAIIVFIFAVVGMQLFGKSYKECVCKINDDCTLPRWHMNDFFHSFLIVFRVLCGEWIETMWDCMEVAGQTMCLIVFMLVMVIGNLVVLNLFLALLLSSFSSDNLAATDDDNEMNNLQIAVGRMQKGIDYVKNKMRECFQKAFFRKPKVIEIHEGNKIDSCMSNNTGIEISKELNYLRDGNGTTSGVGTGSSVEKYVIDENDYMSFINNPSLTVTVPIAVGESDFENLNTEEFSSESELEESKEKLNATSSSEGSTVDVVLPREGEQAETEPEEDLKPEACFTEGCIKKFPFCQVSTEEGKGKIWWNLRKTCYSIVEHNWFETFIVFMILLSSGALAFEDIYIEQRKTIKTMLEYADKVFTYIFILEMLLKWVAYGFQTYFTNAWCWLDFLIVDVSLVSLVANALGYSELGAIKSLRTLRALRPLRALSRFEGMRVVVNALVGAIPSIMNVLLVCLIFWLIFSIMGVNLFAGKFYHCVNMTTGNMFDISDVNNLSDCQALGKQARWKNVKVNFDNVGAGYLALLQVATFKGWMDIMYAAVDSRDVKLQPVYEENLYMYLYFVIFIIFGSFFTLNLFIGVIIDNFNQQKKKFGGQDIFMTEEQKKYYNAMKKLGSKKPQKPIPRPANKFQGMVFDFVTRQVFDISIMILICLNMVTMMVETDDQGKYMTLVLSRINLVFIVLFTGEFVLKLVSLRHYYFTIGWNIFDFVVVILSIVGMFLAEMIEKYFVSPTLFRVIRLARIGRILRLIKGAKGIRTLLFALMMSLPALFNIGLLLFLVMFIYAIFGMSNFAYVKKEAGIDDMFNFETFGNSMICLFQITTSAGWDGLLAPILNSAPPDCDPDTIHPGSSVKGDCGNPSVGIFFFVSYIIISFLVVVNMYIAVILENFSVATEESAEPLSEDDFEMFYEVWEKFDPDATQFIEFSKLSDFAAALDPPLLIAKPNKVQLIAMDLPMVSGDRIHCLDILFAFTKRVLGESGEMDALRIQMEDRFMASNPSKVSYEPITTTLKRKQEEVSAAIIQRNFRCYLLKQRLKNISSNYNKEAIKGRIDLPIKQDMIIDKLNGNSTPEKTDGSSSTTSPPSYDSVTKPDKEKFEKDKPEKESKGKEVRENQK

O=S(=O)(Nc1nccs1)c1ccc(Nc2nc(COc3ccccc3)cs2)cc1 [Compound 48, 4-(4-(phenoxymethyl)thiazol-2-ylamino)-N-(thiazol-2-yl)benzenesulfonamide]
IC50 [1, 3]: < 2000 nM
IC50 [2, 4]: > 1000 nM

O=S(=O)(Nc1nccs1)c1ccc(Nc2ccccc2-c2ccccc2)cc1F [Compound 172, 4-(biphenyl-2-ylamino)-2-fluoro-N-(thiazol-2-yl)benzenesulfonamide]
IC50 [1, 3]: < 2000 nM
IC50 [2, 4]: < 2000 nM

Cc1csc(Nc2ccc(S(=O)(=O)Nc3nccs3)cc2)n1 [Compound 78, 4-(4-methylthiazol-2-ylamino)-N-(thiazol-2-yl)benzenesulfonamide]
IC50 [1, 3]: 2000 to 10000 nM
IC50 [2, 4]: > 1000 nM

Cc1cc(Nc2ccc(S(=O)(=O)Nc3nccs3)c(F)c2)n(-c2ccc(F)cc2Cl)n1 [Compound 182, 4-(1-(2-chloro-4-fluorophenyl)-3-methyl-1H-pyrazol-5-ylamino)-2-fluoro-N-(thiazol-2-yl)benzenesulfonamide]
IC50 [1, 3]: < 2000 nM
IC50 [2, 4]: < 2000 nM

CN(Cc1csc(Nc2ccc(S(=O)(=O)Nc3nccs3)cc2)n1)C(c1ccccc1)c1ccccc1 [Compound 70, 4-(4-((benzhydryl(methyl)amino)methyl)thiazol-2-ylamino)-N-(thiazol-2-yl)benzenesulfonamide]
IC50 [1, 3]: < 2000 nM
IC50 [2, 4]: > 1000 nM

O=S(=O)(Nc1nccs1)c1ccc(Nc2nc(CSc3ccc(F)cc3)cs2)cc1 [Compound 82, 4-(4-((4-fluorophenylthio)methyl)thiazol-2-ylamino)-N-(thiazol-2-yl)benzenesulfonamide]
IC50 [1, 3]: < 2000 nM
IC50 [2, 4]: < 2000 nM

CC(Oc1ccccc1)c1csc(Nc2ccc(S(=O)(=O)Nc3nccs3)cc2)n1 (centres unmarked) [Compound 63, 4-(4-(1-phenoxyethyl)thiazol-2-ylamino)-N-(thiazol-2-yl)benzenesulfonamide]
IC50 [1, 3]: < 2000 nM
IC50 [2, 4]: 2000 to 10000 nM

O=S(=O)(Nc1nccs1)c1ccc(Nc2cnn(Cc3ccc(C(F)(F)F)cc3)c2)cc1F [Compound 150, 2-fluoro-N-(thiazol-2-yl)-4-(1-(4-(trifluoromethyl)benzyl)-1H-pyrazol-4-ylamino)benzenesulfonamide]
IC50 [1, 3]: < 2000 nM
IC50 [2, 4]: < 2000 nM

NC(=O)Cn1nc(Cc2ccc(Cl)cc2)cc1Nc1ccc(S(=O)(=O)Nc2nccs2)cc1 [Compound 155, 2-(3-(4-chlorobenzyl)-5-(4-(N-thiazol-2-ylsulfamoyl)phenylamino)-1H-pyrazol-1-yl)acetamide]
IC50 [1, 3]: < 2000 nM
IC50 [2, 4]: < 2000 nM

O=S(=O)(Nc1nccs1)c1ccc(Nc2ccn(Cc3ccc(Cl)cc3)n2)c(Cl)c1 [Compound 205, 3-chloro-4-(1-(4-chlorobenzyl)-1H-pyrazol-3-ylamino)-N-(thiazol-2-yl)benzenesulfonamide]
IC50 [1, 3]: < 2000 nM
IC50 [2, 4]: < 2000 nM

O=S(=O)(Nc1nccs1)c1ccc(Nc2ncc(S(=O)(=O)c3ccc(Cl)cc3)s2)cc1F [Compound 105, 4-(5-(4-chlorophenylsulfonyl)thiazol-2-ylamino)-2-fluoro-N-(thiazol-2-yl)benzenesulfonamide]
IC50 [1, 3]: < 2000 nM
IC50 [2, 4]: > 10000 nM

CC(C)(Oc1ccc(Cl)cc1)c1csc(Nc2ccc(S(=O)(=O)Nc3nccs3)cc2)n1 [Compound 97, 4-(4-(2-(4-chlorophenoxy)propan-2-yl)thiazol-2-ylamino)-N-(thiazol-2-yl)benzenesulfonamide]
IC50 [1, 3]: < 2000 nM
IC50 [2, 4]: > 1000 nM

O=S(=O)(Nc1nccs1)c1ccc(Nc2nc(Cc3ccc(Cl)cc3)cs2)nc1 [Compound 107, 6-(4-(4-chlorobenzyl)thiazol-2-ylamino)-N-(thiazol-2-yl)pyridine-3-sulfonamide]
IC50 [1, 3]: < 2000 nM
IC50 [2, 4]: 2000 to 10000 nM

O=S(=O)(Nc1nccs1)c1ccc(Nc2nccc(OCC3CCCCC3)n2)cc1 [Compound 81, 4-(4-(cyclohexylmethoxy)pyrimidin-2-ylamino)-N-(thiazol-2-yl)benzenesulfonamide]
IC50 [1, 3]: < 2000 nM
IC50 [2, 4]: > 10000 nM

Cc1cc(Nc2ccc(S(=O)(=O)Nc3nccs3)c(F)c2)n(-c2ccccc2F)n1 [Compound 173, 2-fluoro-4-(1-(2-fluorophenyl)-3-methyl-1H-pyrazol-5-ylamino)-N-(thiazol-2-yl)benzenesulfonamide]
IC50 [1, 3]: < 2000 nM
IC50 [2, 4]: < 2000 nM

Cc1cc(Nc2ccc(S(=O)(=O)Nc3ncc(C#N)s3)c(F)c2)n(-c2ccccc2)n1 [Compound 245, N-(5-cyanothiazol-2-yl)-2-fluoro-4-(3-methyl-1-phenyl-1H-pyrazol-5-ylamino)benzenesulfonamide]
IC50 [1, 3]: 2000 to 10000 nM
IC50 [2, 4]: > 1000 nM

CC(C)(C)c1csc(Nc2ccc(S(=O)(=O)Nc3nccs3)c(OC(F)(F)F)c2)n1 [Compound 11, 4-(4-tert-Butyl-thiazol-2-ylamino)-N-thiazol-2-yl-2-trifluoromethoxy-benzenesulfonamide]
IC50 [1, 5]: 2000 to 10000 nM
IC50 [2, 5]: 2000 to 10000 nM

O=S(=O)(Nc1nccs1)c1ccc(Nc2ccccc2-c2ccccc2)cc1F [Compound 37, 4-(Biphenyl-2-ylamino)-2-fluoro-N-thiazol-2-yl-benzenesulfonamide]
IC50 [1, 5]: < 2000 nM
IC50 [2, 5]: < 2000 nM

Cn1nc(C(C)(C)C)cc1Nc1ccc(S(=O)(=O)Nc2nccs2)c(F)c1 [Compound 193, 4-(3-tert-butyl-1-methyl-1H-pyrazol-5-ylamino)-2-fluoro-N-(thiazol-2-yl)benzenesulfonamide]
IC50 [1, 3]: < 2000 nM
IC50 [2, 4]: < 2000 nM

Cn1nc(CC2CCCCC2)cc1Nc1ccc(S(=O)(=O)Nc2nccs2)c(F)c1 [Compound 133, 4-(3-(cyclohexylmethyl)-1-methyl-1H-pyrazol-5-ylamino)-2-fluoro-N-(thiazol-2-yl)benzenesulfonamide]
IC50 [1, 3]: < 2000 nM
IC50 [2, 4]: < 2000 nM

N#Cc1cnn(-c2ccc(F)c(Cl)c2)c1Nc1ccc(S(=O)(=O)Nc2nccs2)cc1 [Compound 25, 4-(1-(3-chloro-4-fluorophenyl)-4-cyano-1H-pyrazol-5-ylamino)-N-(thiazol-2-yl)benzenesulfonamide]
IC50 [1, 5]: < 2000 nM
IC50 [2, 5]: > 10000 nM

Cc1cc(Nc2ccc(S(=O)(=O)Nc3nccs3)c(F)c2)n(-c2ccccc2Cl)n1 [Compound 149, 4-(1-(2-chlorophenyl)-3-methyl-1H-pyrazol-5-ylamino)-2-fluoro-N-(thiazol-2-yl)benzenesulfonamide]
IC50 [1, 3]: < 2000 nM
IC50 [2, 4]: < 2000 nM

O=S(=O)(Nc1nccs1)c1ccc(Nc2ccn(Cc3ccc(Cl)cc3F)n2)c(F)c1 [Compound 198, 4-(1-(4-chloro-2-fluorobenzyl)-1H-pyrazol-3-ylamino)-3-fluoro-N-(thiazol-2-yl)benzenesulfonamide]
IC50 [1, 3]: < 2000 nM
IC50 [2, 4]: < 2000 nM

CC(C)(C)c1csc(Nc2ccc(S(=O)(=O)Nc3nccs3)c(C#N)c2)n1 [Compound 113, 4-(4-tert-butylthiazol-2-ylamino)-2-cyano-N-(thiazol-2-yl)benzenesulfonamide]
IC50 [1, 3]: 2000 to 10000 nM
IC50 [2, 4]: > 1000 nM

Cn1nc(C(C)(C)C)cc1Nc1ccc(S(=O)(=O)Nc2nccs2)cc1 [Compound 17, 4-(3-Tert-butyl-1-methyl-1H-pyrazol-5-ylamino)-N-(thiazol-2-yl)benzenesulfonamide]
IC50 [1, 5]: < 2000 nM
IC50 [2, 5]: 2000 to 10000 nM
